Results taken from the supplement of paper PMC8967900.

Assays:
Experiment in all cases: selective drug sensitivity score (sDSS, relative to normal bone marrow) (sDSS (score)); higher = more potent and effective on the cell line relative to normal bone marrow cells
Settings in all cases: 72 h
380 = test system: 380
ALL-PO = test system: ALL-PO
ALL-SIL = test system: ALL-SIL
CCRF-CEM = test system: CCRF-CEM
COG-LL-319h = test system: COG-LL-319h
COG-LL-332h = test system: COG-LL-332h
COG-LL-394h = test system: COG-LL-394h
JURKAT = test system: JURKAT
LC4-1 = test system: LC4-1
MHH-CALL-2 = test system: MHH-CALL-2
MHH-CALL-3 = test system: MHH-CALL-3
MHH-CALL-4 = test system: MHH-CALL-4
MN-60 = test system: MN-60
MOLT-16 = test system: MOLT-16
NALL-1 = test system: NALL-1
NALM-16 = test system: NALM-16
NALM-6 = test system: NALM-6
P30-OHKUBO = test system: P30-OHKUBO
PEER = test system: PEER
SEM cells = test system: SEM cells
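Further: ALL cell lines in 384-well plates, five doses spanning 10,000-fold, each plate scaled between vehicle and 100 µmol/L benzalkonium chloride controls, sDSS an adapted area-under-curve metric.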

Row | Compound | selective drug sensitivity score 380 | selective drug sensitivity score (ALL-PO) | selective drug sensitivity score (ALL-SIL) | selective drug sensitivity score (CCRF-CEM) | selective drug sensitivity score (COG-LL-319h) | selective drug sensitivity score (COG-LL-332h) | selective drug sensitivity score (COG-LL-394h) | selective drug sensitivity score (JURKAT) | selective drug sensitivity score (LC4-1) | selective drug sensitivity score (MHH-CALL-2) | selective drug sensitivity score (MHH-CALL-3) | selective drug sensitivity score (MHH-CALL-4) | selective drug sensitivity score (MN-60) | selective drug sensitivity score (MOLT-16) | selective drug sensitivity score (NALL-1) | selective drug sensitivity score (NALM-16) | selective drug sensitivity score (NALM-6) | selective drug sensitivity score (P30-OHKUBO) | selective drug sensitivity score (PEER) | selective drug sensitivity score (SEM cells)
1 | O=C(Nc1ccncc1)C(=O)c1cn(Cc2ccc(Cl)cc2)c2ccccc12 [Indibulin] (top concentration 10000 nM) | 8.74 | 12.7 | 23.4 | 6.04 | 17 | 6.34 | 1.54 | 15.1 | 17.3 | 5.74 | 1.64 | 1.54 | 1.84 | 16 | 9.94 | 9.34 | 0.34 | 6.14 | 11.7 | 11.9
2 | CC(=O)Nc1cccc(-n2c(=O)n(C3CC3)c(=O)c3c(Nc4ccc(I)cc4F)n(C)c(=O)c(C)c32)c1 [Trametinib] (top concentration 250 nM) | 3.56 | -1.44 | -8.04 | -1.84 | -0.74 | -6.04 | -4.34 | -7.94 | 2.46 | 2.96 | 9.46 | 0.06 | -8.04 | -1.94 | -4.84 | -1.24 | 2.86 | -8.04 | -4.44 | -8.04
3 | Cn1cncc1[C@@](N)(c1ccc(Cl)cc1)c1ccc2c(c1)c(-c1cccc(Cl)c1)cc(=O)n2C [Tipifarnib] (top concentration 10000 nM) | 9.2 | 9 | 11.1 | 10.3 | 8.2 | 9.3 | -1.1 | 3.6 | 1.6 | 7.8 | 7 | 6.6 | 2 | 11.8 | 1.4 | 9.9 | 10.6 | 3.5 | 10 | 18.6
4 | CNc1nc(-c2ccc3c(N)n[nH]c3c2)cc(N2C[C@@H](C(=O)NC3CCCCC3)CC[C@H]2C)n1 (top concentration 10000 nM) | -0.14 | 8.86 | 1.36 | 1.36 | 2.96 | -0.14 | -0.14 | -0.14 | 0.76 | 6.16 | -0.14 | 3.46 | 2.96 | -0.14 | -0.14 | 3.86 | 2.96 | 7.86 | -0.14 | 3.26
5 | CS(=O)(=O)c1ccc(C(=O)Nc2ccc(Cl)c(-c3ccccn3)c2)c(Cl)c1 [Vismodegib] (top concentration 10000 nM) | 0.76 | 3.56 | 0.36 | -1.14 | 5.56 | -1.14 | -1.14 | -1.14 | 5.26 | 2.86 | -1.14 | 0.16 | -1.14 | -1.14 | 1.06 | -1.14 | -1.14 | 0.36 | -0.94 | 2.06
6 | Cn1nccc1Nc1nccc(-c2ccn([C@H](CO)c3ccc(Cl)c(F)c3)c(=O)c2)n1 [Ravoxertinib] (top concentration 10000 nM) | 4.9 | 3.6 | -3.2 | 2 | 10.2 | 4.1 | -0.2 | -0.8 | 7 | 8.4 | 9.7 | 11 | -3.2 | 4 | 10 | -1.6 | 4 | 3.5 | -0.3 | 0.7
7 | COc1cc2c(Oc3ccc(NC(=O)C4(C(=O)Nc5ccc(F)cc5)CC4)cc3F)ccnc2cc1OCCCN1CCOCC1 [Foretinib] (top concentration 1000 nM) | -0.56 | 10.8 | 13.6 | 0.64 | 3.44 | 4.74 | 1.84 | -4.36 | 2.04 | 7.04 | -3.56 | 1.64 | -4.46 | 0.24 | 1.74 | 1.04 | 0.74 | 0.54 | 5.04 | 20.9
8 | CC1(COc2ccc3c(c2)ncn3-c2ccc3cccc(N4CCC(N)CC4)c3n2)COC1 [Crenolanib] (top concentration 10000 nM) | 2.08 | 7.78 | 0.28 | -1.82 | -3.92 | -0.82 | -3.62 | -1.12 | -3.92 | 3.28 | -5.32 | 0.68 | -3.42 | -0.22 | 1.58 | -7.62 | -4.02 | -2.72 | -1.52 | 13.9
9 | CCCCc1nc2cc(/C=C/C(=O)NO)ccc2n1CCN(CC)CC [Pracinostat] (top concentration 10000 nM) | 13.2 | 5.58 | 5.18 | 4.68 | 10.1 | 0.58 | 0.18 | 2.48 | 6.18 | 8.98 | 16.5 | 6.28 | -1.42 | 6.28 | 3.18 | 0.98 | 2.78 | 5.68 | 3.98 | 5.28
10 | CC1(C)OCCn2c1nc1c(N3CCOCC3)nc(-c3cnc(N)nc3)nc12 [GDC-0084] (top concentration 10000 nM) | 15 | 11.8 | 4.8 | 6.9 | 3 | 3.7 | -0.3 | 2.9 | 4.2 | 11.2 | 7 | 10.7 | 5.2 | 6.8 | 8.7 | 2.5 | 7 | 10.9 | 2 | 14.4
11 | CC1(C)CC[C@]2(NC(=O)C(C)(F)F)CC[C@]3(C)[C@H](C(=O)C=C4[C@@]5(C)C=C(C#N)C(=O)C(C)(C)[C@@H]5CC[C@]43C)[C@@H]2C1 [Omaveloxolone] (top concentration 10000 nM) | 10.9 | 3.08 | 1.28 | 0.78 | 10.5 | 3.48 | 0.48 | 0.88 | 7.38 | 0.58 | 10.1 | 1.28 | 1.08 | 4.88 | 3.98 | 4.58 | 2.58 | 0.68 | 4.38 | 4.88
12 | COc1ccccc1S(=O)(=O)Nc1ccc2c(c1)CN(C)C(=O)N2 [PFI-1] (top concentration 30000 nM) | 0.1 | 2.7 | 2 | 1.4 | 16.2 | -0.5 | 0.3 | 0.8 | 4.2 | 3.5 | 5.4 | 2.7 | 2.9 | 8.6 | -4.1 | -1 | 1.7 | 6.1 | 2.4 | 4.7
13 | COCCNCc1ccc(-c2cc3nccc(Oc4ccc(NC(=S)NC(=O)Cc5ccc(F)cc5)cc4F)c3s2)nc1 [Glesatinib] (top concentration 2500 nM) | -1.96 | 9.04 | 10.4 | -1.06 | 3.74 | 4.54 | 0.84 | -1.96 | 1.94 | 0.94 | -0.36 | 0.14 | -1.96 | -1.96 | 2.94 | 0.34 | -1.96 | -0.76 | 4.54 | 14.1
14 | Cc1cc(-c2nc(-c3ccc(OC(F)(F)F)cc3)no2)nn1Cc1ccnc(N2CCN(C3CC3)CC2)c1 [BAY_87-2243] (top concentration 1000 nM) | -8.66 | 5.54 | 10.1 | 6.34 | 2.54 | 5.54 | 23.5 | 30.1 | 3.84 | 8.64 | -6.36 | 11.9 | 25.6 | 22.9 | 0.04 | 4.24 | 10 | 6.44 | 27.4 | 6.84
15 | CN1CCc2c(c3ccccc3n2Cc2ccc(C(=O)NO)cc2)C1 [Tubastatin_A] (top concentration 10000 nM) | 11.7 | 3.06 | 3.36 | 2.06 | 8.86 | 1.46 | -0.14 | 0.36 | 6.76 | 3.76 | 18 | -0.14 | 2.16 | 2.86 | 8.76 | -0.14 | 1.36 | 6.96 | 3.36 | 4.76
16 | COc1cccc2c1C(=O)c1c(O)c3c(c(O)c1C2=O)C[C@@](O)(C(=O)CO)C[C@@H]3O[C@H]1C[C@H](N)[C@H](O)[C@H](C)O1 [Doxorubicin] (top concentration 1000 nM) | 11.9 | -0.12 | 1.68 | 7.28 | 13.4 | 11.3 | 7.18 | 2.78 | 5.48 | 10.4 | 14.8 | 9.08 | -2.12 | 16.1 | -1.92 | -1.82 | 3.38 | 5.18 | -3.62 | 4.08
17 | C=C(c1ccc(C(=O)O)cc1)c1cc2c(cc1C)C(C)(C)CCC2(C)C [Bexarotene] (top concentration 10000 nM) | 24 | 3.7 | -4.2 | -3.4 | -5.3 | -1.7 | -5.3 | -2.7 | 0.2 | 3.5 | 10.2 | 3.3 | -5.3 | 1.7 | -4.5 | -4.1 | -3.4 | -5.3 | -3.8 | 2.9
18 | CCN1C(=O)CNc2ncc(-c3ccc(-c4nc[nH]n4)nc3C)nc21 [CC-115] (top concentration 10000 nM) | 10.6 | 4.34 | 1.34 | 4.24 | 11.7 | 2.54 | -2.06 | 1.24 | 4.54 | 8.34 | 1.34 | 7.34 | 1.54 | 4.74 | 4.24 | 1.34 | 1.24 | 2.94 | 2.34 | 0.04
